Experimental data as given in publication PMC6013238, “Development of novel NEMO-binding domain mimetics for inhibiting IKK/NF-κB activation” (PLoS Biology, 2018).
Several values for one entry are separate records, joined by “and”; a condition that tells them apart may be missing. Equal values may be shown once. Read-outs that look alike come from different tables or passages of the source.

Experiments:
NEMO = settings: ref [21], [32]–[34]; read-out: IC50, affinity to NEMO; cited from earlier work
NF-κB target genes = assay: qRT-PCR of NF-κB target genes in LPS-stimulated Raw 264.7 cells; type: cell-based, mouse; settings: LPS 1 μg/ml 2 h; for COX2 mRNA expression (qRT-PCR) / IL6 mRNA expression (qRT-PCR) / IL-1b mRNA expression (qRT-PCR) / TNFa mRNA expression (qRT-PCR) / iNOS mRNA expression (qRT-PCR) / ikBa mRNA expression (qRT-PCR): Fig 4C, IKKi VII 2 μM, 8K-NBD 200 μM, SR compounds 50 μM, relative to no LPS; for Effect on transcription of NF-κB target genes (COX-2, IL-6, IL-1β, TNF-α, IκBα, iNOS): 50 μM
IL-6 production = assay: Mouse IL-6 ELISA of supernatant of LPS-stimulated Raw 264.7 cells; type: cell-based; settings: LPS 1 μg/ml 24 h; for mIL-6 in supernatant (ELISA): Fig 4D; for Effect on LPS-induced IL-6 production (ELISA): 25 and 50 μM
Experimental: Fig 4 Modified lead NBD mimetics inhibit TNF-α- and LPS-induced NF-κB activation by disrupting the association between NEMO and IKKβ. (A) Structures of top NBD mimetics. (B) Measurement of NF-κB activation in response to TNF-α by using Dual-luciferase reporter assays. HEK293 cells cotransfected with NF-κB luciferase reporter and SV40-Renilla plasmids were pretreated with DMSO or listed small molecules at 0, 25, 50, 100, and 150 μM for 30 min, followed by the induction of TNF-α for 3 h. Data shown are representative of 2–3 independent experiments. […] Raw 264.7 cells were pretreated with indicated drugs for 30 min and then stimulated with 1 μg/ml of LPS for 2 h. Cells were then harvested for RNA extraction and qRT-PCR analysis. Drug concentrations used are as follows: IKKi VII (2 μM), 8K-NBD peptide (200 μM), SR12343 (50 μM), SR12460 (50 μM), SR12454 (50 μM), and SR11481 (50 μM). Data are representative of 2 independent experiments. […] Raw 264.7 cells pretreated with DMSO or drugs at indicated concentrations were exposed to 1 μg/ml of LPS for 24 h, and supernatant was collected for ELISA analysis of mouse IL-6. *P < 0.05; **P < 0.01. Underlying data can be found in S1 Data. HEK293, human embryonic kidney 293 cells; IKK, IκB kinase; IL-6, interleukin 6; LPS, lipopolysaccharide; NBD, NEMO-binding domain; n.d., nondetectable; NEMO, NF-κB essential modulator; NF-κB, nuclear factor κB; qRT-PCR, […] real-time polymerase chain reaction; TNF-α; tumor necrosis factor α. TEXT PRINTED IN THE PICTURE: (D) ikki VII: mIL-6 (ng/ml): n.d. | (D) SR12460: mIL-6 (ng/ml): n.d. (50μM) | (D) SR12454: mIL-6 (ng/ml): n.d. (50μM) DOUBTS OF THE COPYIST ABOUT THIS PICTURE: Panel D: the only printed results are the three "n.d." labels. They stand in place of bars and are assigned to ikki VII, SR12460 50μM and SR12454 50μM by their position on the axis. All other results are shown only as bars, with no printed numbers.
To confirm the qRT-PCR results, the levels of IL-6 production in Raw 264.7 cells activated by LPS were analyzed by ELISA.
Raw 264.7 cells were grown in 96-well plates and pretreated with vehicle, IKKi VII (2 μM), and small molecules (at indicated concentration) for 1 h, followed by the stimulation with 1 μg/ml of LPS. Supernatant was collected 24 h later for ELISA analysis. IL-6 concentration was measured using a mouse IL-6 ELISA kit (BD) according to the manufacturer’s instructions.

NF-κB activation = assay: Dual-luciferase (NF-κB firefly/SV40-Renilla) reporter assay, TNF-α-stimulated HEK293 cells; type: cell-based, human; settings: for Relative luciferase activity (NF-κB/Renilla): Fig 4B, CTRL about 1; for NF-κB luciferase activity, dose-dependent curve: Fig S1A, CTRL about 100; for IC50: Homo sapiens, HEK293, luciferase assays at 0, 25, 50, 100, 150 μM, GraphPad, read-out: IC50 of inhibition of TNF-α-mediated NF-κB activation
[1] = Plasma and tissue concentrations 2 h after a single i.p. injection; type: in vivo, mouse; settings: male, C57BL/6J, mouse, ip, 10 mg/kg, 2 h post single i.p. 10 mg/kg, single mice
Experimental: To determine the stability of the NBD mimetics in vivo, their levels were measured in the plasma of mice 2 h post i.p. injection with 10 mg/kg of each compound. The concentration of SR12460 was very high in plasma (>6.5 μg/mL; 20 μM), while levels in brain, muscle, spleen, and liver were lower. SR12343 and SR12454 had lower plasma concentrations, with SR12343 showing a higher level in liver and SR12454 showing higher concentrations in muscle and spleen. The level of SR11481 was undetectable in plasma and tissues (Fig 6A).
Fig 6 Newly identified NBD mimetics suppress LPS-induced acute inflammation in vivo. (A) The bioavailability property of SR12460, SR12343, SR12454, and SR11481. Concentrations of NBD mimetics were determined in plasma, brain, muscle, spleen, and liver 2 h post a single i.p. injection of 10 mg/kg of drugs; n = 3 per group. (B) Shown is the model to induce LPS-mediated acute inflammation and the treatment regimen with NBD mimetics. Mouse image via http://www.clker.com/clipart-mice-blank.html (copyright-free). (C) NBD mimetics suppressed LPS-induced acute inflammation in liver and lung by down-regulating NF-κB target gene expression. Vehicle, SR12343, SR12460, and 8K-NBD peptide were dosed at 10 mg/kg 30 min prior to the LPS treatment. Acute inflammation was induced by i.p. injection of 10 mg/kg LPS. Lung and liver were collected 2–4 h post injection, and mRNA was extracted for qRT-PCR analysis. (D, E) Western blot analysis was performed to probe for the expression of p-IκBα and COX-2 at protein level in liver and lung tissues. (F) Serum levels of IL-6 were determine by ELISA. n = 3–8 each group. *P < 0.05, **P < 0.01. Underlying data can be found in S1 Data. COX-2, cyclooxygenase 2; IL-6, interleukin 6; i.p., intraperitoneal; LPS, lipopolysaccharide; NBD, NEMO-binding domain; n.d., nondetectable; NEMO, NF-κB essential modulator; NF-κB, nuclear factor κB; qRT-PCR, quantitative real-time polymerase chain reaction. TEXT PRINTED IN THE PICTURE: (A) SR11481: Concentration (ng/ml): n.d. (plasma)
The pharmacokinetic profile of the NBD mimetics was determined in male C57BL/6J mice (n = 3). The drugs were formulated in 10:10:80 of DMSO:Tween 80:water and were dosed by i.p. injection at a final dose of 10 mg/kg. Blood, brain, muscle, spleen, and liver were collected 2 h post treatment and were analyzed by mass spectrometry by following a protocol previously described.

## 11-mer NBD peptide: traditional 11-mer NBD peptide of IKKβ (735–745) (TALDWSWLQTE; NEMO-binding domain peptide; UniProt O14920 735-745, looked up, fragment)
NEMO
  IC50: ~100 µM

## IKKβ-derived peptide (701–746): longer IKKβ-derived peptide (701–746) with strongest affinity to NEMO (PAKKSEELVAEAHNLCTLLENAIQDTVREQDQSFTALDWSWLQTEE; UniProt O14920 701-746, looked up, fragment)
NEMO
  IC50: ~0.01 µM

## O=C(COCCc1cc(F)cc(F)c1)Nc1ccc(Cl)cn1 [SR12454]
NF-κB target genes
  COX2 mRNA expression (qRT-PCR): 150.094 and 139.148 and 109.409
  IL6 mRNA expression (qRT-PCR): 68.7623 and 55.5227 and 41.2895
  IL-1b mRNA expression (qRT-PCR): 114.812 and 133.157 and 94.1462
  TNFa mRNA expression (qRT-PCR): 50.3605 and 45.36 and 45.9381
  iNOS mRNA expression (qRT-PCR): 0.9093 and 0.7681 and 0.624
  ikBa mRNA expression (qRT-PCR): 6.788 and 6.238 and 5.4976
  Effect on transcription of NF-κB target genes (COX-2, IL-6, IL-1β, TNF-α, IκBα, iNOS): significantly inhibit the transcription of all NF-κB target genes tested
IL-6 production; 25 μM
  mIL-6 in supernatant (ELISA): 0.9451 ng/mL and 1.2144 ng/mL and 1.5871 ng/mL
IL-6 production; 50 μM
  mIL-6 in supernatant (ELISA): 0 ng/mL
IL-6 production
  Effect on LPS-induced IL-6 production (ELISA): inhibit IL-6 secretion significantly in a dose-dependent manner
NF-κB activation; 25 μM
  Relative luciferase activity (NF-κB/Renilla): 0.3499 and 0.3985 and 0.4797
  NF-κB luciferase activity, dose-dependent curve: 35 and 40 and 48
NF-κB activation; 50 μM
  Relative luciferase activity (NF-κB/Renilla): 0.1222 and 0.1389 and 0.1212
  NF-κB luciferase activity, dose-dependent curve: 12 and 14
NF-κB activation; 100 μM
  Relative luciferase activity (NF-κB/Renilla): 0.07928 and 0.07742 and 0.08432
  NF-κB luciferase activity, dose-dependent curve: 8 and 7.7 and 8.4
NF-κB activation; 150 μM
  Relative luciferase activity (NF-κB/Renilla): 0.1048 and 0.1061 and 0.0973
  NF-κB luciferase activity, dose-dependent curve: 10.4 and 10.6 and 9.7
NF-κB activation
  IC50: 20.2 µM
[1]; liver, read-out: Concentration in liver
  concentration at 2 h: 50 ng/mL

## O=C(COC(=O)Cc1cc(F)cc(F)c1)Nc1ccc(Cl)cn1 [SR11481]
NF-κB target genes
  COX2 mRNA expression (qRT-PCR): 591.346 and 521.171 and 682.383
  IL6 mRNA expression (qRT-PCR): 630.626 and 570.463 and 862.622
  IL-1b mRNA expression (qRT-PCR): 411.733 and 420.368 and 564.689
  TNFa mRNA expression (qRT-PCR): 96.3315 and 86.7639 and 154.495
  iNOS mRNA expression (qRT-PCR): 25.4503 and 21.5558 and 14.0886
  ikBa mRNA expression (qRT-PCR): 12.89 and 13.062 and 21.9932
  Effect on transcription of NF-κB target genes (COX-2, IL-6, IL-1β, TNF-α, IκBα, iNOS): did not induce a detectable suppression
IL-6 production; 25 μM
  mIL-6 in supernatant (ELISA): 1.0708 ng/mL and 1.7487 ng/mL and 1.6903 ng/mL
IL-6 production; 50 μM
  mIL-6 in supernatant (ELISA): 2.4581 ng/mL and 2.0675 ng/mL and 2.2021 ng/mL
IL-6 production
  Effect on LPS-induced IL-6 production (ELISA): significant reduction in the accumulation of IL-6 protein
NF-κB activation; 25 μM
  Relative luciferase activity (NF-κB/Renilla): 0.669 and 0.7893 and 1.108
  NF-κB luciferase activity, dose-dependent curve: 67 and 79 and 111
NF-κB activation; 50 μM
  Relative luciferase activity (NF-κB/Renilla): 0.3445 and 0.3583 and 0.2895
  NF-κB luciferase activity, dose-dependent curve: 34 and 36 and 29
NF-κB activation; 100 μM
  Relative luciferase activity (NF-κB/Renilla): 0.1303 and 0.1653 and 0.168
  NF-κB luciferase activity, dose-dependent curve: 13 and 16 and 17
NF-κB activation; 150 μM
  Relative luciferase activity (NF-κB/Renilla): 0.2602 and 0.3121 and 0.2334
  NF-κB luciferase activity, dose-dependent curve: 26 and 31 and 23
NF-κB activation
  IC50: 45 µM
[1]; plasma, read-out: Concentration in plasma
  concentration at 2 h: 0 ng/mL
